Data on three compounds can be found in EP0639197B1, “EXCITATORY AMINO ACID ANTAGONISTS” (GUILFORD PHARMACEUTICALS INC., priority 1990, dated 1992).

Data set [1] in a line: Inhibition of NMDA-induced seizures after i.c.v. administration. It counts as in vivo, male CF-1 mice. Particulars: mouse, in vivo, icv or intrathecal; ratio of rotorod TD50 to NMDA-seizure ED50; ICV administration. As for the experimental part: (§1) Anticonvulsant studies: The potency of the isomers of APCA to inhibit NMDA-induced seizures was evaluated using male CF-1 mice. All drugs were dissolved in isotonic saline and the pH adjusted to neutrality using NaOH. The test compounds were injected intracerebroventricularly (i.c.v.) in a final volume of […]. N-Methyl-D-aspartate (250mg/kg of body weight) was dissolved in saline (1% v/w of body weight) and injected intraperitoneally (i.p.) 15 minutes following the administration of the test agent. […] NMDA-induced seizures were defined as presence of tonic/clonic activity accompanied by hindlimb extension and death. Rotorod: Animals used for seizure studies were evaluated for motor impairment using the rotorod test. Before use all animals were tested for their ability to maintain equilibrium for 60 seconds on a 1-inch knurled bar rotating at a speed of 6 to 7 rpm. Each animal was given three separate trials. Animals performing the task in any of the three trials were used for further study.

The test system of data set [2] is NMDA-induced seizures. Described as above. It counts as in vivo, male CF-1 mice. Particulars: for ED50: Mus musculus, central, potency to inhibit NMDA-induced seizures, ICV administration 15 minutes before NMDA 250mg/kg i.p., mixtures enriched in the stated isomer, less than about 95% pure. As for the experimental part: as §1
A short description of data set [3]: Rotorod test for motor impairment after i.c.v. administration. Further details: species or system male CF-1 mice. As to conditions: mouse, in vivo, icv or intrathecal; potency to impair rotorod performance; tested 10 minutes after i.c.v. administration; enriched mixtures, less than about 95% pure. As for the experimental part: as §1
Animals were tested for impairment 10 minutes after i.c.v. administration of the test agent and 5 minutes before administration of the seizure-inducing agent. Each animal was tested on a maximum of three trials; completion of any one of the trials was screened as passing.

In data set [4] the target is NMDA receptors. The experiment in a line: Inhibition of specific binding of [3H]CGS-19755 to rat forebrain membranes. Particulars: for IC50: [3H]CGS-19755 4.62 x 10^-9 M, rat forebrain membranes, 20min, 23 C, enriched mixtures, less than about 95% pure. The procedure:
Binding studies: The potency of compounds to inhibit the specific binding of [^3H]CGS-19755 (specific activity 50.5 Ci/mmol, New England Nuclear, Boston, MA) to NMDA receptors was performed as described by Ferkany et al., (J. Pharmacology and Experimental Therapeutics, 1989, 250:100-109). Briefly, animals were sacrificed by decapitation, the forebrain removed immediately and the "buffy coat" prepared as described by Enna and Snyder (Enna, S. and Snyder, S.H., Molecular Pharmacology, 1977, 13:422-433). Crude synaptic membranes were stored frozen (-20 °C) until used. On the day of the assay, membranes were thawed to room temperature and homogenized in 20 vol (w/v) of assay buffer. The homogenate was centrifuged (48,000 x g; 10min; 4 °C), the supernatant decanted and the pellet resuspended as before. The procedure was repeated until the tissue had been washed 4 times to remove endogenous inhibitors.
For assay, the final pellet was resuspended in sufficient buffer (Tris HCl, 0.05M, pH 7.1, 23 °C) to yield a tissue concentration of 0.2mg of protein per ml. Two-milliliter portions of the suspension were added in duplicate to tubes containing ligand (final concentration = 4.62 x 10^- ^9 M) and the compound of interest ([…]). After an incubation of 20min (23 °C), the reaction was terminated by centrifugation, the supernatant was decanted and the pellets washed rapidly and superficially with 2 x 2.5ml of ice-cold buffer. Tissue was solubilized in Protosol (0.5 ml, New England Nuclear, Boston, MA) and after the addition of scintillant, radioactivity was determined using standard procedures.
Non specific binding was determined using L-glutamate at a final concentration of 10^-3 M. Routinely, IC50s were determined using 8-12 concentrations of inhibitor.

Structures are written as SMILES.

Consider `O=C(O)C1CN(CCCP(=O)(O)O)CCN1` (racemic) [(±) CPP, 4-(3-phosphonopropyl)-2-piperazine carboxylic acid, reference compound], for which, in data set [1], the selectivity ratio is 4.5. Also, in data set [2], the ED50 was 2.2 mg/kg. In data set [3], the TD50 at 10 min worked out at 10 mg/kg. The IC50 in data set [4] stood at 190 ± 15 nM.
Take `O=C(O)[C@H]1C[C@@H](CP(=O)(O)O)CCN1` (relative stereo) [CGS-19755, cis-4-(phosphonomethyl)-2-piperidinecarboxylic acid, reference compound]: the selectivity ratio in data set [1] amounted to 6.4. The ED50 in data set [2] turned out to be 2.64 mg/kg. Besides, in data set [3], the TD50 at 10 min came to 17 mg/kg.
Take `N[C@H](C[C@H]1CCCC[C@H]1CCP(=O)(O)O)C(=O)O` (single isomer, unassigned) [cis isomer A, 2-amino-4,5-(1,2-cyclohexyl)-7-phosphonoheptanoic acid]: the selectivity ratio in data set [1] is 30.5. Moreover, the ED50 in data set [2] stood at 1.05 mg/kg. Further, the “fold more potent than the next most potent isomer” value in data set [2] (in vivo effects of Table 1) was “at least 25 fold”. Further, in data set [3], the TD50 at 10 min was determined as 32 mg/kg. For the same compound, the IC50 in data set [4] turned out to be 270 ± 12 nM. The “fold more potent than cis isomer C, the next most potent isomer” value in data set [4] (binding data of Table 2) is listed as “approximately 8 fold”.
